From ChEMBL document CHEMBL1158904, “New metabolites from the sponge Spongia agaricina” (J Nat Prod, 1998)
Values after ≈ are worked out from the molar mass of the structure shown.

Columns and labels:
Type in all cases: functional, cell-based
[1] = tested on: P388; experiment: Cytotoxicity against mouse P388 cells
[2] = tested on: A549; experiment: Cytotoxicity against human A549 cells
[3] = tested on: HT-29; experiment: Cytotoxicity against human HT-29 cells
[4] = tested on: SK-MEL-28; experiment: Cytotoxicity against human SK-MEL-28 cells

Structure (SMILES) | IC50 [1] | IC50 [2] | IC50 [3] | IC50 [4]
CC(=O)O[C@@H]1C[C@H]2[C@]3(C)CC[C@H]4C(C)(C)CCC[C@]4(C)[C@H]3C[C@@H](O)[C@]2(C)c2occc21 | 1 µg/mL (≈ 2.33 µM) | 1 µg/mL (≈ 2.33 µM) | 1 µg/mL (≈ 2.33 µM) | 1 µg/mL (≈ 2.33 µM)
CC(=O)O[C@H]1C[C@H]2[C@]3(C)CC[C@H]4C(C)(C)CCC[C@]4(C)[C@H]3C[C@@H](O)[C@]2(C)[C@H]2OC(=O)C=C12 | 5 µg/mL (≈ 11.2 µM) | 5 µg/mL (≈ 11.2 µM) | 5 µg/mL (≈ 11.2 µM) | 5 µg/mL (≈ 11.2 µM)
C=C(CC[C@@H](C)[C@H]1CC[C@@H](C2=C[C@@H]3O[C@@]34C[C@@H](O)CC[C@]4(C)C2=O)[C@]1(C)CC=O)C(C)C | 1 µg/mL (≈ 2.26 µM) | 1 µg/mL (≈ 2.26 µM) | 1 µg/mL (≈ 2.26 µM) | 1 µg/mL (≈ 2.26 µM)
CC(C)[C@@H](C)/C=C/[C@@H](C)[C@H]1CC[C@@H](C2=C[C@@H]3O[C@@]34C[C@@H](O)CC[C@]4(C)C2=O)[C@]1(C)CC=O [3-O-DEACETYLLUFFASTEROL B] | 1 µg/mL (≈ 2.26 µM) | 1 µg/mL (≈ 2.26 µM) | 1 µg/mL (≈ 2.26 µM) | 1 µg/mL (≈ 2.26 µM)
